Laboratory results reported in PMC2481421, “Gene expression response in target organ and whole blood varies as a function of target organ injury phenotype” (Genome Biology, 2008).
“And” between values parts separate entries of the source, which are not always exact repeats. Equal values may be shown once. “Also recorded” adds a separate entry of the source.

How the values were obtained:
whole blood = experiment: Hematology of whole blood (Technicon H*1, differential and reticulocyte counts); assay type: in vivo, Male Fischer 344/N rats; settings: rat, 15 mg/kg, 6 hours, animal 5
Procedure: (§1) Doses were determined with pilot experiments. […] Serum was collected for clinical chemistry.
Blood was collected in EDTA tubes (BD Microtainer® Tubes). The samples were assayed using the Technicon H*1 hematology analyzer (Bayer Corporation, Tarrytown, NY, USA). The instrument performs white blood cell (WBC) counts by two independent methods. The values must have agreed within 10%. Manual counts and smear estimates were used to confirm values, when necessary. To monitor red blood cell (RBC) parameters, spun microhematocrits were performed for each specimen for comparison with the automated hematocrit (which is calculated from the directly measured RBCs and the mean cell volume). Control products were assayed after every tenth specimen. For WBC differential data, smears were Wright-Giemsa stained using an Ames Hema-Tek II automated slide stainer (Bayer Corporation, Ames Division, Elkhart, IN, USA) and manual WBC differential counts were performed on the first sample in each group. For reticulocyte counts, equal amounts of whole blood and New Methylene Blue stain were allowed to incubate at room temperature for at least 15 minutes. Smears were prepared and read to determine the percent reticulocytes per 1,000 RBCs. The percent value is multiplied by the RBC count to determine the absolute number of reticulocytes per microliter. Additional data file 1 details the values for each of these parameters for every animal.

[1] = In-life observations: body weight, gross findings before and at necropsy; assay type: in vivo, Male Fischer 344/N rats; settings: gavage, corn oil, individual animals
Procedure: as §1

liver = experiment: Liver histopathology (H&E sections of left liver lobe, severity graded) after a single dose; settings: for level of hepatocellular necrosis: medium dose, 6 hour
serum = experiment: Serum clinical chemistry (COBAS MIRA); assay type: in vivo, Male Fischer 344/N rats; settings: rat, 15 mg/kg, 6 hours, animal 5
Procedure: as §1
At sacrifice, blood was collected in clotting tubes (BD Microtainer® Tubes, BD, Franklin Lakes, NJ, USA) and serum was separated. Clinical chemistry analysis was performed on all rats using a COBAS MIRA (Roche Diagnostics, Montclair, NJ, USA) using commercially available reagents from Equal Diagnostics (Exton, PA, USA) for the following assays: total protein, albumin, cholesterol, creatinine, direct bilirubin, total bilirubin, total bile acid, blood urea nitrogen and triglycerides. In addition, an enzymatic activity for the following proteins was measured: alanine aminotransferase, alkaline phosphatase, aspartate aminotransferase, lactate dehydrogenase, and sorbitol dehydrogenase. Additional data file 1 details the clinical chemistry value for each of these parameters for every animal.

[2] = 150 mg/kg, 24 hours, listed as 1, 2-Dichlorobenzene
[3] = 150 mg/kg, 48 hours, listed as 1, 2-Dichlorobenzene
[4] = 1500 mg/kg, 24 hours, listed as 1, 2-Dichlorobenzene
[5] = 1500 mg/kg, 48 hours, listed as 1, 2-Dichlorobenzene
[6] = categorical score, rat, 15 mg/kg, 6 hours, animal 5
[7] = severity score, rat, 15 mg/kg, 6 hours, animal 5

SMILES: Clc1ccccc1Cl [1,2-Dichlorobenzene]
- % (Retic) (whole blood): 1.9%
- Absolute Retic (whole blood): 0.1604
- Baso-phils (whole blood): 0.03
- Eosino-phils (whole blood): 0.06
- Hct (whole blood): 43.4%
- Hgb 9g/dL0 (whole blood): 15 g/dL
- LUCs (atyical) (whole blood): 0.04
- Lympho-cytes (whole blood): 2.84
- MCH (whole blood): 17.8 pg
- MCV (whole blood): 51.4 fL
- Mono-cytes (whole blood): 0.2
- Neuts (Segs) (whole blood): 1.59
- Platelets (whole blood): 601 1000/ul
- RBC (whole blood): 8.44 mil/ul
- Spun Hct (whole blood): 45%
- WBC (whole blood): 4.77 1000/ul
- Clin/Ob Prior to Necropsy ([1]; 15 mg/kg, 6 hours): Normal
- Gross Findings ([1]; 15 mg/kg, 6 hours): No Gross Findings
- Clin/Ob Prior to Necropsy ([1]; 15 mg/kg, 24 hours): normal
- Gross Findings ([1]; 15 mg/kg, 24 hours): No Gross Findings
- Final Body Wt. ([1]; 15 mg/kg, 24 hours, listed as 1, 2-Dichlorobenzene): 225.00 g and 229.20 g and 252.70 g and 262.00 g
- Clin/Ob Prior to Necropsy ([1]; 15 mg/kg, 48 hours): normal
- Gross Findings ([1]; 15 mg/kg, 48 hours): No Gross Findings
- Final Body Wt. ([1]; 15 mg/kg, 48 hours, listed as 1, 2-Dichlorobenzene): 238.50 g and 244.20 g and 246.80 g and 250.10 g
- Clin/Ob Prior to Necropsy ([1]; 150 mg/kg, 6 hours): Normal
- Gross Findings ([1]; 150 mg/kg, 6 hours): No Gross Findings
- Clin/Ob Prior to Necropsy [1, 2]: normal; also recorded: lethargic
- Final Body Wt. [1, 2]: 217.90 g and 205.90 g and 233.30 g and 249.00 g
- Gross Findings [1, 2]: No Gross Findings; also recorded: left & median liver lobe mottled; left dark on edges
- Clin/Ob Prior to Necropsy ([1]; 150 mg/kg, 48 hours): normal
- Final Body Wt. [1, 3]: 235.70 g and 244.20 g and 239.50 g and 241.90 g
- Gross Findings [1, 3]: No Gross Findings; also recorded: left liver lobe rough surface
- Clin/Ob Prior to Necropsy ([1]; 1500 mg/kg, 6 hours): Normal
- Gross Findings ([1]; 1500 mg/kg, 6 hours): No Gross Findings
- Clin/Ob Prior to Necropsy [1, 4]: lethargic; also recorded: normal
- Final Body Wt. [1, 4]: 207.10 g and 207.70 g and 219.70 g and 225.00 g
- Gross Findings [1, 4]: left & median liver lobes mottled; left dark on edges; also recorded: No Gross Findings; also recorded: left & median liver lobes mottled; median dark on edges
- Clin/Ob Prior to Necropsy ([1]; 1500 mg/kg, 48 hours): lethargic
- Final Body Wt. [1, 5]: 208.60 g and 211.10 g
- Gross Findings [1, 5]: No Gross Findings; also recorded: left & median liver lobes rough surface
- Inflammation (liver; [6]): 0
- Repair (liver; [6]): 0
- Response to Hepatocellular Injury (liver; [6]): 0
- level of hepatocellular necrosis (liver; animal 2): did not have any observable necrosis
- level of hepatocellular necrosis (liver; animals 1, 3, and 4): minimal
- Bile Duct Hyperplasia (liver; [7]): 0
- Cellular Infiltration, Mixed Cell (liver; [7]): 0
- Cellular Infiltration, Mononuclear Cell (liver; [7]): 0
- Cellular Infiltration, Neutrophil (liver; [7]): 0
- Centrilobular Cellular Infiltration, Mixed Cell (liver; [7]): 0
- Centrilobular Cellular Infiltration, Mononuclear Cell (liver; [7]): 0
- Centrilobular Cellular Infiltration, Neutrophil (liver; [7]): 0
- Centrilobular Hepatocyte Degeneration (liver; [7]): 0
- Centrilobular Hepatocyte Necrosis (liver; [7]): 0
- Centrilobular, Hepatocyte, Midzonal Degeneration (liver; [7]): 0
- Centrilobular, Hepatocyte, Midzonal Necrosis (liver; [7]): 0
- Congestion (liver; [7]): 0
- Depletion Glycogen (liver; [7]): 0
- Focal Hepatocyte Necrosis (liver; [7]): 0
- Hemorrhage (liver; [7]): 0
- Hepatocyte Apoptosis (liver; [7]): 0
- Hepatocyte Fatty Change (liver; [7]): 0
- Hepatocyte Hypertrophy (liver; [7]): 0
- Hepatocyte Necrosis (liver; [7]): 0
- Hepatocyte Regeneration (liver; [7]): 0
- Midzonal Centrilobular Cellular Infiltration, Mixed Cell (liver; [7]): 0
- Midzonal Centrilobular Cellular Infiltration, Neutrophil (liver; [7]): 0
- Midzonal Hepatocyte Necrosis (liver; [7]): 0
- Mitosis (liver; [7]): 0
- Portal Cellular Infiltration, Mixed Cell (liver; [7]): 0
- Portal Cellular Infiltration, Neutrophil (liver; [7]): 0
- ALP (serum): 269 U/L
- ALT (serum): 54 U/L
- AST (serum): 128 U/l
- Alb (serum): 2.9 g/dL
- BUN (serum): 20 mg/dL
- CK (serum): 479 U/L
- Chol (serum): 45 mg/dL
- Crea (serum): 1 mg/dL
- D.Bil (serum): 0.2
- LDH (serum): 454 U/L
- SDH (serum): 5 U/L
- T.Bil (serum): 0.9
- T.Protein (serum): 6.7 g/dL
- Trig (serum): 195 mg/dL
